Measurements as given in patent publication US5792775A (priority 1996, dated 1998).
“Also recorded” adds a separate entry of the source. Read-outs that look alike come from different tables or passages of the source.

Legend:
[1] = biological target: T1, muscarinic m2 receptors (Rattus norvegicus, UniProt P10980); test: Muscarinic m2 receptor binding ([^3 H]AFDX 384), NOVASCREEN; conditions: for muscarinic m2 affinity relative to dopamine transporter affinity: in words
T1 sequence (P10980 1-466): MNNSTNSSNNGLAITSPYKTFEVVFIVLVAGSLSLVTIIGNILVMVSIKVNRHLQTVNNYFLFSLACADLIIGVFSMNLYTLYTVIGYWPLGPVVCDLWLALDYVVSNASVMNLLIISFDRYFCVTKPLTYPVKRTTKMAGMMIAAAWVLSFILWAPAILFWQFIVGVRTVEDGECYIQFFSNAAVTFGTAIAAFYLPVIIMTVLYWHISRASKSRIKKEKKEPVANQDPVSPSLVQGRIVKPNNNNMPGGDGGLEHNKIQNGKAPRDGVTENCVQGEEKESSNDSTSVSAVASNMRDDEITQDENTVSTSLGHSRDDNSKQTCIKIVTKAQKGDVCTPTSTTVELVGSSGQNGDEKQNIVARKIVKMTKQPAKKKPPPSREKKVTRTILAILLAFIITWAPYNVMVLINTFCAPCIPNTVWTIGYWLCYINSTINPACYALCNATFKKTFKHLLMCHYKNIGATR
Description: (§1) Serotonin (5-HTT), norepinephrine transporter (NET) and muscarinic m1 and m2 receptor binding data were provided by NOVASCREEN.

[2] = biological target: T2, muscarinic m1 receptors (Rattus norvegicus, UniProt P08482); test: biochemical; format: binding
T2 sequence (P08482 1-460): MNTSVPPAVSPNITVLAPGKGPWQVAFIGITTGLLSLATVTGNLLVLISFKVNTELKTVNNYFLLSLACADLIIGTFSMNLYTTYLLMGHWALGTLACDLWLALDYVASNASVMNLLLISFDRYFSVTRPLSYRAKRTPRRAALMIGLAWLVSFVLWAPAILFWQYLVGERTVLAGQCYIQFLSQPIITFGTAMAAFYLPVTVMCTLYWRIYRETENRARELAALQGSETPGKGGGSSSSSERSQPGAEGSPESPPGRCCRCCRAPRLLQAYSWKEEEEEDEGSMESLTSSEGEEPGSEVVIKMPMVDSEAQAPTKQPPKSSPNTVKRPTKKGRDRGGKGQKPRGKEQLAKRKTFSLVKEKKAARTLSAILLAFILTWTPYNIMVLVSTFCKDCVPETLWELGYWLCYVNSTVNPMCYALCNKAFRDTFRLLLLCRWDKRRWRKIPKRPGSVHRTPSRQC

[3] = tested on: dopamine uptake, rat caudate putamen; format: biochemical
[4] = biological target: norepinephrine transporter (NET) (Rattus norvegicus, UniProt Q63380); test: biochemical; format: binding
[5] = biological target: serotonin transporter (5HTT) (Rattus norvegicus, UniProt P31652); test: Serotonin transporter binding ([^3 H]citalopram), NOVASCREEN
Description: as §1

[6] = biological target: T3, dopamine transporter (DAT) (Rattus norvegicus, UniProt P23977); test: Displacement of [^3 H]WIN 35,428 binding (Dopamine Transporter Binding Assay); conditions: for Ki: Table III, displacement of [^3 H]WIN 35,428, rat caudate putamen, % error in parentheses
T3 construct: brains removed to an ice-cooled dish for dissection of the caudate putamen; from tissue; host or cells: rat caudate putamen, washed membranes of male Sprague-Dawley rats (Taconic)

[7] = Table IV, head prints no unit, IC50 in nM, read-out: [^3 H]DAU (inhibition of [^3 H]-Dopamine Uptake)
[8] = read-out: NET, % Inhibition at 10 μM
[9] = Table V, rat caudate putamen, read-out: [^3 H]DA Uptake Inhibition IC50
[10] = Table III, footnote d, read-out: 5HTT Ki value in nM (bracketed)
[11] = Table III footnote b, read-out: m2, % Inhibition of radiolabeled ligand binding

T3 sequence (P23977 whole entry): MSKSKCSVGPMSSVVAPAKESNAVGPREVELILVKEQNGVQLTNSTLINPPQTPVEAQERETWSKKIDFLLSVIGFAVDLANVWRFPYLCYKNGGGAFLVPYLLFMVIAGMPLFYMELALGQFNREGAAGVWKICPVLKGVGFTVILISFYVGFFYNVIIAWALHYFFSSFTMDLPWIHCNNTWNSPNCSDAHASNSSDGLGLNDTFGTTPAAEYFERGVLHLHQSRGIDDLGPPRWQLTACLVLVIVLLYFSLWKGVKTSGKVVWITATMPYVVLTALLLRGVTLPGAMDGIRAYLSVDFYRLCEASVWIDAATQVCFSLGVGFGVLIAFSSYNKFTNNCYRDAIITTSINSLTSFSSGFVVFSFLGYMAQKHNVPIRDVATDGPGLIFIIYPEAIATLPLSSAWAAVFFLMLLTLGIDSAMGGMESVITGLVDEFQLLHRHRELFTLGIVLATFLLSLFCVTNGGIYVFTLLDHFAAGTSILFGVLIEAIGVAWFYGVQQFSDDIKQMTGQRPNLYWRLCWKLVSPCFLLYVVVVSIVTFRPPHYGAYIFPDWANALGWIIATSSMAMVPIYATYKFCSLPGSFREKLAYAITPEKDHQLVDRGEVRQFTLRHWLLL
Sequence of norepinephrine transporter (NET) (Q63380 1-617): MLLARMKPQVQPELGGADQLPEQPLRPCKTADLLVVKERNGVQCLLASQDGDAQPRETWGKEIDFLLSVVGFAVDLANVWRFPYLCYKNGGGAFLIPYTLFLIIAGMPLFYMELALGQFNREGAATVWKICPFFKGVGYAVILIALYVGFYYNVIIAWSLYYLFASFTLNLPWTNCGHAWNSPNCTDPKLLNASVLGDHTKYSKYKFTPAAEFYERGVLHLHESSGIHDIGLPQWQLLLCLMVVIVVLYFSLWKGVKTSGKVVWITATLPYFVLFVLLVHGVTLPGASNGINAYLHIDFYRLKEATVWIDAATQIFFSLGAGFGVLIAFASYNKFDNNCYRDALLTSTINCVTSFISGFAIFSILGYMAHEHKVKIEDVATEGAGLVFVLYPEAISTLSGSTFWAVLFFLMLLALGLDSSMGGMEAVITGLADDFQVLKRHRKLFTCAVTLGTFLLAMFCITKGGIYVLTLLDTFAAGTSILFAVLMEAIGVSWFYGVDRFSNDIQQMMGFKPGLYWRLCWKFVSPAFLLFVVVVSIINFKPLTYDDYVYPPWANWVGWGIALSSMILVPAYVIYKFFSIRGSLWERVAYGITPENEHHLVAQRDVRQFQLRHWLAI
Sequence of serotonin transporter (5HTT) (P31652 whole entry): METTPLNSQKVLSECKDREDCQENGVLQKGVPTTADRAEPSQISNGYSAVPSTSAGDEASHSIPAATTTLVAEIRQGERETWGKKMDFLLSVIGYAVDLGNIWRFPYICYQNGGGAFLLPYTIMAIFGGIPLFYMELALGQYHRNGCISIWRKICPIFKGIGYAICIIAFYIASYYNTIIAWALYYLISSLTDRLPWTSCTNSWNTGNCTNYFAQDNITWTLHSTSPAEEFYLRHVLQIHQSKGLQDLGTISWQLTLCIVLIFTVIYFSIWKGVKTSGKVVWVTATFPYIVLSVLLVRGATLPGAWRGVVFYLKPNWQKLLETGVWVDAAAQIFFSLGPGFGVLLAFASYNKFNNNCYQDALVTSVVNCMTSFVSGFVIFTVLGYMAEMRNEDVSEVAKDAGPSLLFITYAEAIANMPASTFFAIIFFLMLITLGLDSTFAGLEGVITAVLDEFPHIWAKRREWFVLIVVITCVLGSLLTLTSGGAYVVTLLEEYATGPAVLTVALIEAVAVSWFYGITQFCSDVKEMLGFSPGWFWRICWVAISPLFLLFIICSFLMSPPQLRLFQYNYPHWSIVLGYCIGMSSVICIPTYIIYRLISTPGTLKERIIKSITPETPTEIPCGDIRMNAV

SMILES | IC50 [3, 7] | IC50 [3, 9] | inhibition at 10 µM ([5]; read-out: 5HTT (% I@10 μM)) | inhibition at 10 µM ([4]; read-out: NET (% I@10 μM)) | Ki ([1]; Table III) | Ki ([2]; Table III, read-out: m1, Ki) | Ki [6] | other results
Fc1ccc(C(O[C@H]2C[C@H]3CC[C@@H](C2)N3)c2ccc(F)cc2)cc1 [AHN 2-003, N-nor-4',4"-difluorobenztropine] | 10 nM | – | – | – | – | – | – | Ki ([1]; Table IV): 620 nM; Ki ([2]; Table IV, read-out: m1, Ki): 90.7 nM; Ki [4]: > 8000 nM
C=CCN1[C@@H]2CC[C@H]1C[C@@H](OC(c1ccc(F)cc1)c1ccc(F)cc1)C2 [AHN 2-005, N-allyl-4',4"-difluorobenztropine] | 14 nM | – | – | – | – | – | – | Ki ([1]; Table IV): 254 nM; Ki ([2]; Table IV, read-out: m1, Ki): 89.1 nM; Ki [5]: 1970 nM; inhibition at 10 µM [4, 8]: 22.1%
Fc1ccc(C(O[C@H]2C[C@H]3CC[C@@H](C2)N3CC=Cc2ccccc2)c2ccc(F)cc2)cc1 [AHN 2-006] | 184 nM | – | – | – | – | – | – | Ki ([1]; Table IV): 1590 nM; Ki [2]: 240 nM; Ki [5]: 1490 nM; Ki [4]: 577 nM
O=CN1[C@@H]2CC[C@H]1C[C@@H](OC(c1ccc(F)cc1)c1ccc(F)cc1)C2 [AHN 2-032] | 5380 nM | – | – | – | – | – | – | inhibition at 10 µM ([1]; Table IV footnote b, read-out: m2, % Inhibition at 10 μM): 62%; inhibition at 10 µM ([2]; Table IV footnote b, 10 μM): 54%; inhibition at 10 µM ([5]; Table IV footnote b, 10 μM, read-out: 5HHT, % Inhibition at 10 μM): 1.6%; inhibition at 10 µM [4, 8]: 29%
CN1[C@@H]2CC[C@H]1C[C@@H](OC(c1ccccc1)c1ccc(Cl)cc1)C2 (stereo partly drawn) [Compound 7a, 4'-Cl-3α-(diphenylmethoxy)tropane] | – | 115 nM | 34% | 32% | – | – | – | –
CN1[C@@H]2CC[C@H]1C[C@@H](OC(c1ccc(Cl)cc1)c1ccc(Cl)cc1)C2 [Compound 7b] | – | – | – | 43% | 1490 nM | – | – | Ki [4]: > 6000 nM
COc1ccc(C(O[C@H]2C[C@H]3CC[C@@H](C2)N3C)c2ccccc2)cc1 (stereo partly drawn) [Compound 7d, 4'-methoxy-3α-(diphenylmethoxy)tropane] | – | 468 nM | 30.5% | 30.9% | 18.9 nM | 4.2 nM | – | –
COc1ccc(C(O[C@H]2C[C@H]3CC[C@@H](C2)N3C)c2ccc(OC)cc2)cc1 [Compound 7e] | – | 2880 nM | 31% | 34% | 1000 nM | 39.6 nM | – | –
CN1[C@@H]2CC[C@H]1C[C@@H](OC(c1ccccc1)c1ccc([N+](=O)[O-])cc1)C2 (stereo partly drawn) [Compound 7f] | – | 219 nM | 54% | 29% | 41.9 nM | 7.1 nM | 197 nM | Ki [5, 10]: > 3570 nM
CN1[C@@H]2CC[C@H]1C[C@@H](OC(c1ccccc1)c1ccc(C#N)cc1)C2 (stereo partly drawn) [Compound 7g] | – | 222 nM | 40% | 16% | 74 nM | – | 196 nM | Ki ([2]; read-out: m1, Ki): 7.1 nM
CN1[C@@H]2CC[C@H]1C[C@@H](OC(c1ccccc1)c1ccc(Br)cc1)C2 (stereo partly drawn) [Compound 7h] | – | 29 nM | 39% | 37% | 39.1 nM | 3.7 nM | 37.9 nM | –
CN1[C@@H]2CC[C@H]1C[C@@H](OC(c1ccc(Br)cc1)c1ccc(Br)cc1)C2 [Compound 7i] | – | 34 nM | 41% | 41.1% | – | – | 91.6 nM | inhibition at 10 µM [1, 11]: 66%; lower affinity for muscarinic m1 receptors than the parent benztropine [2]: > 70 fold
CN1[C@@H]2CC[C@H]1C[C@@H](OC(c1ccccc1)c1ccc(F)cc1)C2 (stereo partly drawn) [Compound 7j] | – | – | 35.2% | 37.9% | 15 nM | 1.1 nM | – | –
CN1[C@@H]2CC[C@H]1C[C@@H](OC(c1ccccc1)c1ccc(Cl)c(Cl)c1)C2 (stereo partly drawn) [Compound 7k] | – | 47 nM | 66.2% | 56.5% | 141 nM | 12.5 nM | 22.1 nM | Ki [5, 10]: > 1790 nM; Ki ([4]; read-out: NET Ki value in nM (bracketed), Table III, footnote d): > 4870 nM
CN1[C@@H]2CC[C@H]1C[C@@H](OC(c1ccc(F)cc1)c1ccc(Cl)c(Cl)c1)C2 (stereo partly drawn) [Compound 7l] | – | 24 nM | 80.3% | 57.8% | 369 nM | 33 nM | 18.9 nM | Ki [5, 10]: > 691 nM; Ki [4]: > 9000 nM
CN1[C@@H]2CC[C@H]1C[C@@H](OC(c1ccccc1)c1ccc(C(F)(F)F)cc1)C2 (stereo partly drawn) [Compound 7m] | – | 2160 nM | 49.1% | 34.6% | 1510 nM | 5.4 nM | 635 nM | selectivity for m1 over m2 sites ([2]; m1 vs. m2): ~300 fold
CN1[C@@H]2CC[C@H]1C[C@@H](OC(c1ccccc1)c1ccc(C(C)(C)C)cc1)C2 (stereo partly drawn) [Compound 7n] | – | 4460 nM | 24.7% | 37.6% | – | 148 nM | – | inhibition at 10 µM [1, 11]: 54%
Cc1ccc(C(O[C@H]2C[C@H]3CC[C@@H](C2)N3C)c2ccc(C)cc2)cc1 [Compound 7o] | – | 2540 nM | 35.5% | 35.1% | 716 nM | 47.2 nM | 420 nM | –
Cc1ccc(C(O[C@H]2C[C@H]3CC[C@@H](C2)N3C)c2ccccc2)cc1 (stereo partly drawn) [Compound 7p] | – | 512 nM | 35.4% | 31.8% | 37.5 nM | 2.7 nM | 187 nM | –
Fc1ccc(C(O[C@H]2C[C@H]3CC[C@@H](C2)N3Cc2ccccc2)c2ccc(F)cc2)cc1 [JHW 005] | 285 nM | – | – | – | – | – | – | Ki ([1]; Table IV): 276 nM; muscarinic m2 affinity relative to dopamine transporter affinity [1]: significantly lower binding affinities at the muscarinic m1 and m2 receptors as compared to binding affinities at the dopamine transporter; Ki ([2]; Table IV, read-out: m1, Ki): 2490 nM; muscarinic m1 affinity relative to dopamine transporter affinity ([2]; in words): significantly lower binding affinities at the muscarinic m1 and m2 receptors as compared to binding affinities at the dopamine transporter; Ki [5]: 1810 nM
CCCCN1[C@@H]2CC[C@H]1C[C@@H](OC(c1ccc(F)cc1)c1ccc(F)cc1)C2 [JHW 007] | – | – | – | – | – | – | – | Ki ([1]; Table IV): 308 nM; muscarinic m2 affinity relative to dopamine transporter affinity [1]: significantly lower binding affinities at the muscarinic m1 and m2 receptors as compared to binding affinities at the dopamine transporter; Ki [2]: 527 nM; muscarinic m1 affinity relative to dopamine transporter affinity [2]: significantly lower binding affinities at the muscarinic m1 and m2 receptors as compared to binding affinities at the dopamine transporter; IC50 ([3]; Table IV footnote d: biphasic inhibition curve, IC50 in nM, read-out: [^3 H]DAU (inhibition of [^3 H]-Dopamine Uptake), biphasic inhibition curve): 371 nM
Fc1ccc(C(O[C@H]2C[C@H]3CC[C@@H](C2)N3CCCc2ccccc2)c2ccc(F)cc2)cc1 [JHW 010] | 227 nM | – | – | – | – | – | – | Ki ([1]; Table IV): 499 nM; Ki [2]: 273 nM
Fc1ccc(C(O[C@H]2C[C@H]3CC[C@@H](C2)N3CC2CC2)c2ccc(F)cc2)cc1 [JHW 013] | 180 nM | – | – | – | – | – | – | Ki ([2]; Table IV, read-out: m1, Ki): 7.7 nM; Ki [5]: 53.4 nM; Ki [4]: 117 nM
Fc1ccc(CN2[C@@H]3CC[C@H]2C[C@@H](OC(c2ccc(F)cc2)c2ccc(F)cc2)C3)cc1 [JKW 009] | 204 nM | – | – | – | – | – | – | Ki [2]: 0.45 nM; Ki [5]: 53.4 nM; inhibition at 10 µM [4, 8]: 60%
COC(=O)[C@H]1[C@@H](c2ccc(F)cc2)C[C@@H]2CC[C@H]1N2C [[^3 H]WIN 35,428, 2β-carbomethoxy-3β-(4-fluorophenyl)tropane, reference compound] | – | – | – | – | – | – | – | Bmax, high affinity component of [^3 H]WIN 35,428 binding ([6]; high affinity component, LIGAND analysis): 445±338 fmol/mg protein; Bmax, low affinity component of [^3 H]WIN 35,428 binding ([6]; low affinity component, LIGAND analysis): 1995±559 fmol/mg protein
COC(=O)[C@H]1[C@@H](OC(=O)c2ccccc2)C[C@@H]2CC[C@H]1N2C [cocaine, reference compound] | – | – | – | – | – | – | – | mode of displacement of [^3 H]WIN 35,428 binding ([6]; monophasic vs. biphasic): biphasic displacement; also recorded: revealed two binding sites
